Paper PMC4154947, “Polyisoprenylated methylated protein methyl esterase as a putative drug target for androgen-insensitive prostate cancer” (ecancermedicalscience, 2014)

How the values were obtained:
[1] = target: T1, Polyisoprenylated methylated protein methyl esterase (PMPMEase; human carboxylesterase 1, hCE1) (Homo sapiens, UniProt P23141); assay: HPLC-UV detection of substrate hydrolysis by prostate cell lysates; assay type: cell-based
T1 construct: gene CES1
T1 sequence (P23141 18-567): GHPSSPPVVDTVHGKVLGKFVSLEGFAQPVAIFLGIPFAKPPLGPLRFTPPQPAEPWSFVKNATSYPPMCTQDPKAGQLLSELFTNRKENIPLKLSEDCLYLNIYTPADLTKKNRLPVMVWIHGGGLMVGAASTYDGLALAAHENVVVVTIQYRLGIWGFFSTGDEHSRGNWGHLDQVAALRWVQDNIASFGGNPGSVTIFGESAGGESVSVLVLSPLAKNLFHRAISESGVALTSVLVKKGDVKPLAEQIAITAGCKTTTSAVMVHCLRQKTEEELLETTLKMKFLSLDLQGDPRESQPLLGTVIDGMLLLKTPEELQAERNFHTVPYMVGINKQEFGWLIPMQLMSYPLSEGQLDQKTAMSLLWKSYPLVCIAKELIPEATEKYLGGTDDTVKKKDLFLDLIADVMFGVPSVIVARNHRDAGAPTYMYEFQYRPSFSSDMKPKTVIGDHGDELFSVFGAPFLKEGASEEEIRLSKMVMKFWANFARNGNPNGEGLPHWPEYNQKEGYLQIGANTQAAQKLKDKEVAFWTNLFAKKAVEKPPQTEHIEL

[2] = target: T1, Polyisoprenylated methylated protein methyl esterase (PMPMEase; human carboxylesterase 1, hCE1); assay: HPLC assay of RD-PNB hydrolysis in prostate cancer cell lysates (PC-3 value); assay type: biochemical

SMILES | HPLC-UV detection of substrate hydrolysis by prostate cell lysates [1] | IC50 [2]
COC(=O)[C@H](CSC/C=C(\C)CC/C=C(\C)CCC=C(C)C)NC(=O)c1ccc([N+](=O)[O-])cc1 [RD-PNB, N-(4-nitrobenzoyl)-S-trans, trans-farnesyl-L-cysteine methyl ester] | Incubation of the specific PMPMEase substrate, RD-PNB, with lysates from the respective cell lines resulted in the hydrolysis | 
CC(C)=CCC/C(C)=C/CC/C(C)=C/CSCCS(=O)(=O)F [L-28, 2-trans, trans-farnesylthioethanesulfonyl fluoride] |  | 3 µM
